15 compounds from PMC8767159, “Multiparameter Optimization of Trypanocidal Cruzain Inhibitors With In Vivo Activity and Favorable Pharmacokinetics” (Frontiers in Pharmacology, 2022) can be followed below.

A short description of data set [1]: In vitro metabolic stability in mouse liver microsomes. It is filed as in vitro ADME. The settings on record: for CLint (L/h/kg) Mouse: Table S5; for CLint_u (L/h/kg) Mouse: Table S5, CLint/fu. Here is the method:
(§1) Isolated mouse (BD Gentest, Bedford, MA) and human liver microsomes (XenoTech, Kansas City, KS) ([Plant, 2004]) were added at a final concentration of 0.25 mg/ml to a solution containing 40 mM dibasic potassium phosphate and 10 mM monobasic potassium phosphate. Stock solutions of compounds at 5 mM were prepared in 100% DMSO. A 50:50 quenching solution of acetonitrile (ACN) and methanol (MeOH) was prepared. An NADPH solution was prepared at 10 mM. The preparations containing the microsomes were added to each well of the incubation plate (450 µl), which was then heated to 37°C for 10 min. The compounds were added to the respective wells of the test plate (2 µl). Then, 300 µl of the microsome preparation was added to each well of the test plate. The test plate was heated under gentle rotation for 5 min at 37°C. Next, 90 µl of the mixture contained in the test plate was added to the incubation plate, making a final volume of 540 µl. Samples were collected at the following incubation times: 0, 5, 10, 15, 20, and 30 min. To the 0 min sample plate, quenching solution (180 µl), NADPH (6 µl), and the incubation plate mixture (54 µl) were added to each well. The sample plate was then sealed, homogenized, and stored at 4°C. Then, 54 µl of the NADPH solution was added to the incubation plate, which was homogenized. Before the collection of each sample at the established times, 45 µl of the quenching solution was added to each well of the corresponding sample plates. After reaching the incubation times, 60 µl of the mixture contained in the incubation plate was added to the corresponding sample plates. The sample plates were then sealed and stored at 4°C. After the collection of the last sample (30 min), all sample plates were centrifuged at 3,800 rpm for 30 min. The supernatant from each well was collected and transferred to clean plates for mass spectrometry. Five to 10 µl of each sample was injected into an AB Sciex Triple Quad 5500 LC-MS/MS instrument.
(§2) For the biotransformation experiments and analysis of metabolites in microsomes, an Ultra-High-Pressure Liquid Chromatography instrument (UHPLC, Thermo Accela, Waltham, MA) ([Spaggiari et al., 2014]) connected to an automatic sample injector and a 1250 series pump was used. The UHPLC system was connected to a Thermo Fisher (Waltham, MA) LTQ Orbitrap mass spectrometer. For all other analyses, an AB Sciex Triple Quad 5500 coupled to a UHPLC equipped with a UV 1290 diode detector (Agilent Technologies, Santa Clara, CA) and a CTC PAL self-collecting system (LEAP Technologies, Carrboro, NC) was used. Q1 MS positive ion mode (300–500 Da) was used to detect the ions of the parent compounds. The UV detector was operated in spectral mode (250–280 nm). A Hypersil Gold C18 (2.1 mm × 100 mm, 1.9 µm, Thermo Fisher) HPLC column was used. The mobile phases were solvent A (0.1% formic acid in water) and solvent B (0.1% formic acid in ACN). The flow was adjusted to 0.55 ml/min, and the injection volume was adjusted to […]. The gradient started with 1% solvent B for 0.4 min, reached 40% (solvent B) in 2.3 min and 95% (solvent B) in 0.67 min, was maintained for 0.5 min, and returned to the initial condition of 1%. This condition was maintained for 1 min before injection of the next sample. The peak area ratio (peak area of the test compounds/peak area of the control compounds) was converted to the percentage of remaining compound, with the 0 min time point ratio set to 100%. T½ and CLint were calculated from the percentage of remaining compound versus the incubation time. From the resulting function, the slope (k) was determined. The equations T1/2 (min) = ln(2)/k and CLint in vitro (μL/min/mg) = k*1000/0.25 were used to determine T½ and CLint.

A short description of data set [2]: Fraction unbound by equilibrium dialysis. It is filed as in vitro ADME. The settings on record: Table S5; fraction unbound. How it is done:
The fraction unbound (fu) ([Masimirembwa et al., 2003]) of the test compounds was determined after incubation with different media, namely, plasma, microsomes, and buffer with 10% FCS. Equilibrium dialysis was performed in a 96-well plate (HT-Dialysis, Gales Ferry, CT) in which each well was divided by a semipermeable membrane (12–14 kDa cutoff). The test compounds diluted in either plasma, microsome suspension, or buffer were added to one side of the membrane. Potassium phosphate buffer (50 mM, pH 7.4) was added to the other side of the membrane. A standard curve was used to calculate the compound concentration (fu) on each side of the membrane. Stock solutions of each compound were prepared in 100% DMSO to obtain a final concentration of 1 mM. The following compound concentrations were used: 1, 2, 20, 200, 2,000 and 5,000 nM. To 500 μl of medium, 0.5 μl of the compound stock solution was added, and this was applied to one side of the well. Each compound was evaluated in triplicate. Next, the plate was assembled, sealed, and incubated at 37°C under rotation (150 rpm) for 4 h. After the incubation period, the plates were subjected to LC-MS/MS.

A short description of data set [3]: In vitro metabolic stability in human liver microsomes. It is filed as in vitro ADME. As to conditions: for CLint (L/h/kg) Human: Table S5; for CLint_u (L/h/kg) Human: Table S5, CLint/fu. Here is the method:
as §1, §2

A short description of data set [4]: Cytotoxicity MTS assay in HFF-1 fibroblasts. It is filed as cell-based. As to conditions: human HFF-1 fibroblasts. How it is done:
The synthesized compounds were evaluated for their cytotoxicity against HFF-1 cells using the MTS assay (Promega, Madison, WI) ([Barltrop et al., 1991]) as previously described ([Ferreira et al., 2019]). HFF-1 fibroblasts were plated at 2 × 10^3/well in 96-well culture plates in RPMI 1640 without phenol red enriched with 10% FCS and incubated overnight at 37°C and 5% CO2. Next, 7 concentrations (0.1–100 µM) of the compounds were added in 3-fold serial dilutions, each concentration in triplicate, and the plates were incubated for 72 h at 37°C and 5% CO2. Next, 20 µl of MTS was added to each well, and the plates were incubated for an additional 4 h at 37°C and 5% CO2. The absorbance was measured at 490 nm using a spectrophotometer, and the data were transferred to SigmaPlot 10.0 (Systat Software Inc., Erkrath, Germany) to determine the IC50 values. Doxorubicin (Sigma–Aldrich) was used as a positive control, and untreated wells (100% growth) were used as negative controls in all plates. All compounds were tested in two independent assays.

Regarding `CC(=O)NCCc1nc2ccccc2n1CCOc1ccccc1Br` [Compound 57], in data set [1], the “CLint (L/h/kg) Mouse” value stood at 306.00 L/h/kg and the “CLint_u (L/h/kg) Mouse” value is given as 325.19 L/h/kg. In data set [2], this compound yielded a fu of 0.94. In data set [3], the “CLint (L/h/kg) Human” value is on record as 9.38 L/h/kg and the “CLint_u (L/h/kg) Human” value is reported as 9.97 L/h/kg.
The corresponding values for `O=C(CSc1ccccc1)NCCc1nc2ccccc2[nH]1` [Compound 48] are 234.00 L/h/kg, 293.60 L/h/kg, 0.80, 9.07 L/h/kg and 11.38 L/h/kg.
In data set [4], `COc1cccc2c1C(=O)c1c(O)c3c(c(O)c1C2=O)C[C@@](O)(C(=O)CO)C[C@@H]3O[C@H]1C[C@H](N)[C@H](O)[C@H](C)O1` [Doxorubicin, reference compound] had an IC50 at 72 h of 260 nM.
With `O=C(COc1cccc2ccccc12)NCCc1nc2ccccc2[nH]1` [Compound 44], in data set [1], the “CLint (L/h/kg) Mouse” value was 504.00 L/h/kg and the “CLint_u (L/h/kg) Mouse” value is recorded as 1,495.55 L/h/kg. In data set [2], the fu is 0.34. Moreover, in data set [3], the “CLint (L/h/kg) Human” value worked out at 23.80 L/h/kg and the “CLint_u (L/h/kg) Human” value was 70.62 L/h/kg.
The corresponding values for `O=C(COc1ccc2ccccc2c1)NCCc1nc2ccccc2o1` [Compound 51] are 618.00 L/h/kg, 1,144.44 L/h/kg, 0.54, 35.40 L/h/kg and 65.56 L/h/kg.
`COc1ccc2[nH]c(CCNC(=O)COc3ccc4ccccc4c3Br)nc2c1` [Compound 53]: in data set [1], the “CLint (L/h/kg) Mouse” value is listed as 500.00 L/h/kg and the “CLint_u (L/h/kg) Mouse” value is listed as 2,793.30 L/h/kg. This compound also yielded a fu in data set [2] of 0.18. Besides, in data set [3], the “CLint (L/h/kg) Human” value came to 72.40 L/h/kg and the “CLint_u (L/h/kg) Human” value was determined as 404.47 L/h/kg.
Consider `O=C(COc1ccc2ccccc2c1Br)NCCc1nc2ccccc2n1CCC(=O)c1cccs1` [Compound 61], for which, in data set [1], the “CLint (L/h/kg) Mouse” value worked out at 355.00 L/h/kg. In data set [2], the fu came out at 0.04. In addition, in data set [3], the “CLint (L/h/kg) Human” value was 157.00 L/h/kg and the “CLint_u (L/h/kg) Human” value is recorded as 3,634.26 L/h/kg.
The corresponding values for `O=C(COc1ccc2ccccc2c1Br)NCCc1nc2cc(Cl)ccc2[nH]1` [Compound 52] are 407.00 L/h/kg, 0.02, 41.60 L/h/kg and 2,122.45 L/h/kg.
As for `Cc1ccccc1OCC(=O)NCCc1c[nH]c2ccccc12` [Compound 50], in data set [1], the “CLint (L/h/kg) Mouse” value is given as 790.00 L/h/kg and the “CLint_u (L/h/kg) Mouse” value is given as 1,292.96 L/h/kg. This compound registered a fu in data set [2] of 0.61. Besides, in data set [3], the “CLint (L/h/kg) Human” value was 23.60 L/h/kg and the “CLint_u (L/h/kg) Human” value amounted to 38.63 L/h/kg.
For `Nc1ccccc1OCC(=O)NCCc1nc2ccccc2[nH]1` [Compound 42] the same measures were 24.80 L/h/kg, 29.45 L/h/kg, 0.84, 3.91 L/h/kg and 4.64 L/h/kg.
For `Cc1cc(C)c(C#N)c(SCC(=O)NCCc2nc3ccccc3[nH]2)n1` [Compound 59] the same measures were 433.00 L/h/kg, 453.17 L/h/kg, 0.96, 61.50 L/h/kg and 64.36 L/h/kg.
With `O=C(CCOc1ccccc1)NCCc1nc2ccccc2[nH]1` [Compound 49], in data set [1], the “CLint (L/h/kg) Mouse” value worked out at 86.20 L/h/kg and the “CLint_u (L/h/kg) Mouse” value stood at 86.20 L/h/kg. For the same compound, in data set [2], the fu is given as 1.00. For the same compound, in data set [3], the “CLint (L/h/kg) Human” value turned out to be 3.28 L/h/kg and the “CLint_u (L/h/kg) Human” value was determined as 3.28 L/h/kg.
Regarding `CC(=O)NCCc1nc2ccccc2n1CCOCc1ccccc1` [Compound 56], in data set [1], the “CLint (L/h/kg) Mouse” value is recorded as 95.10 L/h/kg and the “CLint_u (L/h/kg) Mouse” value turned out to be 98.14 L/h/kg. In data set [2], this compound yielded a fu of 0.97. Besides, in data set [3], the “CLint (L/h/kg) Human” value is reported as 4.75 L/h/kg and the “CLint_u (L/h/kg) Human” value was found to be 4.90 L/h/kg.
For `Cc1cc(C)c(C#N)c(SCC(=O)NCCc2c[nH]c3ccccc23)n1` [Compound 60] the same measures were 485.00 L/h/kg, 608.53 L/h/kg, 0.79, 155.00 L/h/kg and 194.48 L/h/kg.
For `O=C(COc1ccccc1I)NCCc1nc2ccccc2[nH]1` [Compound 41] the same measures were 683.00 L/h/kg, 1,082.41 L/h/kg, 0.63, 39.40 L/h/kg and 62.44 L/h/kg.
